According to ChEMBL document CHEMBL1681676, “The design and synthesis of novel N-hydroxyformamide inhibitors of ADAM-TS4 for the treatment of osteoarthritis” (Bioorg Med Chem Lett, 2011):

Tests used:
Cytochrome P450 3A4 = Cytochrome P450 3A4 (Homo sapiens, UniProt P08684); assay: Inhibition of CYP3A4; format: ADME
[1] = target: Voltage-gated inwardly rectifying potassium channel KCNH2 (Homo sapiens, UniProt Q12809); assay: Inhibition of human ERG
[2] = Intrinsic clearance in human liver microsomes
[3] = Intrinsic clearance in rat hepatocytes measured per 10^6 cells; format: ADME, cell-based, Liver, Hepatocyte
[4] = Clearance in Han Wistar rat at 2 mg/kg, iv by LC-MS/MS analysis; format: ADME, organism-based; parameters: dose 2 mg/kg, route intravenous; settings: in vivo
[5] = Half life in Han Wistar rat at 2 mg/kg, iv and po by LC-MS/MS analysis; format: ADME, organism-based; parameters: dose 2 mg/kg, route oral; settings: in vivo
[6] = Oral bioavailability in Han Wistar rat at 3 to 10 mg/kg by LC-MS/MS analysis; format: ADME, organism-based; settings: in vivo
Interstitial collagenase = target: T1, Interstitial collagenase (Homo sapiens, UniProt P03956); assay: Inhibition of recombinant human MMP1 assessed as substrate cleavage by measuring increase in fluorescence after 16 hrs
T1 sequence (P03956 whole entry): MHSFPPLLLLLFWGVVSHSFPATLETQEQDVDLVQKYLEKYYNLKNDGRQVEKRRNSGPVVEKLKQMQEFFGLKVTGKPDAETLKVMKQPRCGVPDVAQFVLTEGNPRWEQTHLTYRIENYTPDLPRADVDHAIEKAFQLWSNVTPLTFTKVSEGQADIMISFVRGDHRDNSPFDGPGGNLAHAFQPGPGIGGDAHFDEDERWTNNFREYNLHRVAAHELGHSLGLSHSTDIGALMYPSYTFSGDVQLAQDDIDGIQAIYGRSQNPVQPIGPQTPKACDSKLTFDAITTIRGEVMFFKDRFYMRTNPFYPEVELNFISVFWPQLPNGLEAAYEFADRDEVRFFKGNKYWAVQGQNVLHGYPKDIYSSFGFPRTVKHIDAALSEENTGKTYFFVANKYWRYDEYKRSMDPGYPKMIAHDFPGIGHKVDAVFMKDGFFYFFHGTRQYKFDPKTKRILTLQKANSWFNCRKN

Collagenase 3 = Collagenase 3 (Homo sapiens, UniProt P45452); assay: Inhibition of recombinant human MMP13 assessed as substrate cleavage by measuring increase in fluorescence after 16 hrs
[7] = target: Matrix metalloproteinase-14 (Homo sapiens, UniProt P50281); assay: Inhibition of recombinant human MMP14 assessed as substrate cleavage by measuring increase in fluorescence after 16 hrs
[8] = target: 72 kDa type IV collagenase (Homo sapiens, UniProt P08253); assay: Inhibition of recombinant human MMP2 assessed as substrate cleavage by measuring increase in fluorescence after 16 hrs
Sequence of 72 kDa type IV collagenase (P08253 whole entry, the tested form may be a part): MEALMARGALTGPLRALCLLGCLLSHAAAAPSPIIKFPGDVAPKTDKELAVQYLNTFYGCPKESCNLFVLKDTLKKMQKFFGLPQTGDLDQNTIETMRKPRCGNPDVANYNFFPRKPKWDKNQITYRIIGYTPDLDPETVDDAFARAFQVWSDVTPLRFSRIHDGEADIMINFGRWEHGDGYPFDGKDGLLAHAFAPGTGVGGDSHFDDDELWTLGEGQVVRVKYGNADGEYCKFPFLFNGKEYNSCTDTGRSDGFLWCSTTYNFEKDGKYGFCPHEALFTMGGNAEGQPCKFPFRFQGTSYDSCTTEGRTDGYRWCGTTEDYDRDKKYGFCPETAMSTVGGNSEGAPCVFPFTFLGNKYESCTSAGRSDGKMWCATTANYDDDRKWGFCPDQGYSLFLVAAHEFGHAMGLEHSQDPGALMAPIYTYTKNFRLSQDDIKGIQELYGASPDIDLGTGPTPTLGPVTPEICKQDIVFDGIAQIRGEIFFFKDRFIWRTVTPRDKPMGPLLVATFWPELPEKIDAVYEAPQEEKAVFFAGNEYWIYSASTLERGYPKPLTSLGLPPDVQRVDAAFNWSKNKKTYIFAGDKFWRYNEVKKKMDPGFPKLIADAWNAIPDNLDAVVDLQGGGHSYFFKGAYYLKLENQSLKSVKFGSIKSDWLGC

[9] = target: Disintegrin and metalloproteinase domain-containing protein 17 (Homo sapiens, UniProt P78536); assay: Inhibition of TACE assessed as substrate cleavage by measuring increase in fluorescence after 16 hrs
Sequence of Disintegrin and metalloproteinase domain-containing protein 17 (P78536 whole entry, the tested form may be a part): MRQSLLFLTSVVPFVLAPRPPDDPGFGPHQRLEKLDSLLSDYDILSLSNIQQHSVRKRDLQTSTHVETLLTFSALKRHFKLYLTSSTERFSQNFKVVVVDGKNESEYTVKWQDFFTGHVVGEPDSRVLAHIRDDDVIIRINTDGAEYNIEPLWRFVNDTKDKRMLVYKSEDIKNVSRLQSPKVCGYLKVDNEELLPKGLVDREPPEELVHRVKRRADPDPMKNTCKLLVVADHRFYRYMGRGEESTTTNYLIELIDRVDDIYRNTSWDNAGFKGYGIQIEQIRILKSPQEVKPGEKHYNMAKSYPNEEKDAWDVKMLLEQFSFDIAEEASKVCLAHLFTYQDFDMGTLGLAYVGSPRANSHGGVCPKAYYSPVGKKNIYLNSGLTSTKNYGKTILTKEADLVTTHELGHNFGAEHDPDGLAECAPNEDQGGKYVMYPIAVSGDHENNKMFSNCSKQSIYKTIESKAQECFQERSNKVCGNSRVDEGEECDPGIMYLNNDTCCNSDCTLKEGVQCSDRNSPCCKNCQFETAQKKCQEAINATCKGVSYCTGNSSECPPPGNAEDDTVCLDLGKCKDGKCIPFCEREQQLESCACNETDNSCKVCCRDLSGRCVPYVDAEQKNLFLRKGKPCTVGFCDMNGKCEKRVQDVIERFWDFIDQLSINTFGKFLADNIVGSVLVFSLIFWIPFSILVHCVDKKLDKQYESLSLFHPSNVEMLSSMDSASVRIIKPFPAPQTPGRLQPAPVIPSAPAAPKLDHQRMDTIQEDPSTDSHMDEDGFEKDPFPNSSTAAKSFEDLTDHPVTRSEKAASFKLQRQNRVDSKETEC

[10] = Clearance in Beagle dog at 1 mg/kg, iv by LC-MS/MS analysis; format: ADME, organism-based, Canis lupus familiaris; parameters: dose 1 mg/kg, route intravenous; settings: in vivo
Rattus norvegicus = assay: Volume of distribution at steady state in Han Wistar rat at 2 mg/kg, iv and po by LC-MS/MS analysis; format: ADME, organism-based; parameters: dose 2 mg/kg, route oral; settings: in vivo
Canis familiaris = assay: Volume of distribution at steady state in Beagle dog at 1 mg/kg, iv and po by LC-MS/MS analysis; format: ADME, organism-based, Canis lupus familiaris; parameters: dose 1 mg/kg, route oral; settings: in vivo
[11] = Oral bioavailability in Han Wistar rat at 2 mg/kg by LC-MS/MS analysis; format: ADME, organism-based; settings: in vivo
[12] = Oral bioavailability in Beagle dog at 1 mg/kg by LC-MS/MS analysis; format: ADME, organism-based, Canis lupus familiaris; settings: in vivo
[13] = Oral bioavailability in mouse by LC-MS/MS analysis; format: ADME, organism-based; settings: in vivo
[14] = Inhibition of aggrecanase-mediated aggrecan degradation in IL-1-stimulated bovine nasal cartilage explant after 48 hrs by immunoblot method; format: tissue-based, Bos taurus
[15] = Inhibition of aggrecanase-mediated aggrecan degradation in IL-1 and oncostatin M-stimulated human knee osteoarthritic cartilage after 48 hrs by immunoblot method
[16] = Half life in Beagle dog at 1 mg/kg, iv and po by LC-MS/MS analysis; format: ADME, organism-based, Canis lupus familiaris; parameters: dose 1 mg/kg, route oral; settings: in vivo
[17] = target: T2, A disintegrin and metalloproteinase with thrombospondin motifs 4 (Homo sapiens, UniProt O75173); assay: Inhibition of ADAMTS-4 assessed as substrate cleavage by measuring increase in fluorescence after 16 hrs
T2 sequence (O75173 whole entry): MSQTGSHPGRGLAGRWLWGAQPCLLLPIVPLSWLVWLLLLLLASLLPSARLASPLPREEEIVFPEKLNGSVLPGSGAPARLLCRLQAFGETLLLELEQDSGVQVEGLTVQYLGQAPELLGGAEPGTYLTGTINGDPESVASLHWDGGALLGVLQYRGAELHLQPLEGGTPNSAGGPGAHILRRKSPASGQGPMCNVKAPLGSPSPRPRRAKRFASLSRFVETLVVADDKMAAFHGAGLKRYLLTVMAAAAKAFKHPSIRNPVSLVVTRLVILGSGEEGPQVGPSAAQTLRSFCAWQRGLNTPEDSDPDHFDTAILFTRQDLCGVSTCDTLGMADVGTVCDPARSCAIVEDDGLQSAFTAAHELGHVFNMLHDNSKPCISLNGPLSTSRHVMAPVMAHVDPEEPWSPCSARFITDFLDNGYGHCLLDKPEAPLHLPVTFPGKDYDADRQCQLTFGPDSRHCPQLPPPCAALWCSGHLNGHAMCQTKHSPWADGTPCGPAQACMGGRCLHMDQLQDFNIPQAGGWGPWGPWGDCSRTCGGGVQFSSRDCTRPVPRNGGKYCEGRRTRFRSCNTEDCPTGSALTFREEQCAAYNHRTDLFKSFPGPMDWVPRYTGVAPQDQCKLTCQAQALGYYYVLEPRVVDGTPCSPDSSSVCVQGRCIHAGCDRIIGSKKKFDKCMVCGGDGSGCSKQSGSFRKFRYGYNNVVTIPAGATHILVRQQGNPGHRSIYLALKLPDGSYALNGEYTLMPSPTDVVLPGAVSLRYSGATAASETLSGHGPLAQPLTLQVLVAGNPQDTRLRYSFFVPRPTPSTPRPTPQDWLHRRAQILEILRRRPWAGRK

Sequence of Cytochrome P450 3A4 (P08684 whole entry): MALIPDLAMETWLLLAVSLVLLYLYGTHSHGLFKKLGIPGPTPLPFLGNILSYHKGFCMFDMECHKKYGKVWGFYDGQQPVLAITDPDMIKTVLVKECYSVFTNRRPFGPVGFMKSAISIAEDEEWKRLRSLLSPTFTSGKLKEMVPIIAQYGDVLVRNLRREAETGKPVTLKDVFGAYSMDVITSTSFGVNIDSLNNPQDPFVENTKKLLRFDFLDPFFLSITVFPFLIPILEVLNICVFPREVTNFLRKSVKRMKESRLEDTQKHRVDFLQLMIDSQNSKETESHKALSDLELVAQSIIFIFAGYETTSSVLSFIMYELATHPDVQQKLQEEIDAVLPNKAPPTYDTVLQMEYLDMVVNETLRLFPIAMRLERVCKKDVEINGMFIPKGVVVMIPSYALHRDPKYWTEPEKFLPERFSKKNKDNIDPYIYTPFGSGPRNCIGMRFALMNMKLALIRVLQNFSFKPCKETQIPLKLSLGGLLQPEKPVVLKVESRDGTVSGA
Sequence of Voltage-gated inwardly rectifying potassium channel KCNH2 (Q12809 whole entry): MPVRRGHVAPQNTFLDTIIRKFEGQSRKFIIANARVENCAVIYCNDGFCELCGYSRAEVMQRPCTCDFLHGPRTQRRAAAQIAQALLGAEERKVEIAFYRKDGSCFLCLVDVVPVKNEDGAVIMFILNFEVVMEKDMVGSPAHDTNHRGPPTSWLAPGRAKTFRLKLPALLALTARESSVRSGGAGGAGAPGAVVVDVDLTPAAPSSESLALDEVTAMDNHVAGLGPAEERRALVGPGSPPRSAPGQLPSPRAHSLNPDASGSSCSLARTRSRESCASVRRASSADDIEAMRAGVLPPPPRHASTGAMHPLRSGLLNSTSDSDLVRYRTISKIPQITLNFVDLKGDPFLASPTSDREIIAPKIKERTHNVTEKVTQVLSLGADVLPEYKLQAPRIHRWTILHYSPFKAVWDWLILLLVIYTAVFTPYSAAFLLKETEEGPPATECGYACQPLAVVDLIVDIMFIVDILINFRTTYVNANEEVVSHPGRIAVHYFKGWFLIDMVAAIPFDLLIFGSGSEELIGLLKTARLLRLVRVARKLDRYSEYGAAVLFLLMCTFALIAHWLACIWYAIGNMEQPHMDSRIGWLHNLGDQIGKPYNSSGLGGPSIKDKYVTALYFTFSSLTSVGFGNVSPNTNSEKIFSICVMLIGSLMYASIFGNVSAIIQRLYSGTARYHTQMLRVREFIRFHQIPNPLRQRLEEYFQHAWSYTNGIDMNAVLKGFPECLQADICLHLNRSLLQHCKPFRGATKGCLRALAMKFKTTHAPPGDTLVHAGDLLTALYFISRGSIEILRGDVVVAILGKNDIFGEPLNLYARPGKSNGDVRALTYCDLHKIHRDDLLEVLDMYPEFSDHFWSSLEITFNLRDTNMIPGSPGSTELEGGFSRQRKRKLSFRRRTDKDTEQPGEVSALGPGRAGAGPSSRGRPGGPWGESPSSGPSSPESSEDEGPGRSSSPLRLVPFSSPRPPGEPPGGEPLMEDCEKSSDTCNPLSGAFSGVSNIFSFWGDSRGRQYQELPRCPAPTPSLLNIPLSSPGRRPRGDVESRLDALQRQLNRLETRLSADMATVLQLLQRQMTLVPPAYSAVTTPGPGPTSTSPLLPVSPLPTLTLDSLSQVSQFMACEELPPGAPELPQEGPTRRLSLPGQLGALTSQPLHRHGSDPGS

SMILES | IC50 (Interstitial collagenase) | IC50 (Collagenase 3) | IC50 [7] | IC50 [8] | IC50 [9] | IC50 [17] | also measured
C[C@@H](C[C@@](C)(CS(=O)(=O)N1CCC(OCc2ccc(Cl)cc2Cl)CC1)N(O)C=O)c1ncc(F)cn1 | > 10000 nM | 430 nM | 430 nM |  |  |  | IC50 (Cytochrome P450 3A4): > 10000 nM; IC50 [1]: 8000 nM; microsomal CLint [2]: 107 µL/min/mg; hepatocyte CLint [3]: 56.9 µL/min/1e6 cells; clearance [4]: 130 mL/min/kg; half-life [5]: 0.3 h; bioavailability [6]: 0%
Cc1noc(C)c1CCC1CCN(S(=O)(=O)C[C@](C)(C[C@H](C)c2ncc(F)cn2)N(O)C=O)CC1 | > 19000 nM | > 8100 nM | > 8900 nM | > 6300 nM | 250 nM |  | clearance [4]: 11 mL/min/kg; half-life [5]: 11 h; clearance [10]: 20 mL/min/kg; Vdss (Rattus norvegicus): 7.4 L/kg; Vdss (Canis familiaris): 9.21 L/kg; bioavailability [11]: 3.5%; bioavailability [12]: 20%; bioavailability [13]: 34%; IC50 [14]: 310 nM; IC50 [15]: 243 nM; half-life [16]: 11.3 h
C[C@@H](C[C@@H](CS(=O)(=O)N1CCN(c2ccc(F)cc2)CC1)N(O)C=O)c1ncc(F)cn1 | > 1100 nM | 11 nM | 11 nM |  |  | 1.4 nM | IC50 (Cytochrome P450 3A4): 1400 nM; IC50 [1]: 26000 nM
C[C@@H](C[C@@H](CS(=O)(=O)N1CCC(OCc2ccc(Cl)cc2Cl)CC1)N(O)C=O)c1ncc(F)cn1 | 9700 nM | 180 nM | 180 nM |  |  | 1 nM | 
C[C@@H](C[C@@](C)(CS(=O)(=O)N1CCN(c2ccc(F)cc2)CC1)N(O)C=O)c1ncc(F)cn1 | 980 nM | 7.6 nM | 7.6 nM |  |  | 7.3 nM | IC50 (Cytochrome P450 3A4): > 10000 nM; IC50 [1]: 21000 nM
C[C@@H](C[C@@](C)(CS(=O)(=O)N1CCN(CCc2ccc(Cl)cc2Cl)CC1)N(O)C=O)c1ncc(F)cn1 |  |  |  |  |  | 3.8 nM | microsomal CLint [2]: 54 µL/min/mg; hepatocyte CLint [3]: 10.2 µL/min/1e6 cells; clearance [4]: 14 mL/min/kg; half-life [5]: 5.6 h; bioavailability [6]: 30%
C[C@@H](C[C@@](C)(CS(=O)(=O)N1CCC(CCc2ccc(Cl)cc2Cl)CC1)N(O)C=O)c1ncc(F)cn1 |  |  |  |  |  | 1.1 nM | microsomal CLint [2]: 6.9 µL/min/mg; hepatocyte CLint [3]: 7.6 µL/min/1e6 cells; clearance [4]: 20 mL/min/kg; half-life [5]: 14.9 h; bioavailability [6]: 38%
C[C@@H](C[C@@](C)(CS(=O)(=O)N1CCC(NCc2ccc(Cl)cc2Cl)CC1)N(O)C=O)c1ncc(F)cn1 |  |  |  |  |  | 2200 nM | 
C[C@@H](C[C@@](C)(CS(=O)(=O)N1CCC(CCc2ccc(C(F)(F)F)cc2Cl)CC1)N(O)C=O)c1ncc(F)cn1 | > 100000 nM | 260 nM | 900 nM | 170 nM |  | 0.48 nM | 
Cc1cc(Cl)ccc1CCC1CCN(S(=O)(=O)C[C@](C)(C[C@H](C)c2ncc(F)cn2)N(O)C=O)CC1 | > 8500 nM | 370 nM | 360 nM | 530 nM |  | 0.36 nM | 
C[C@@H](C[C@@](C)(CS(=O)(=O)N1CCC(CCc2ccc(F)cc2Br)CC1)N(O)C=O)c1ncc(F)cn1 | > 8000 nM | 2300 nM | 390 nM | 1700 nM |  | 0.48 nM | 
C[C@@H](C[C@@](C)(CS(=O)(=O)N1CCC(CCc2cc(F)ccc2Cl)CC1)N(O)C=O)c1ncc(F)cn1 | > 9600 nM | 570 nM | 56 nM | 500 nM |  | 2.8 nM | 
C[C@@H](C[C@@](C)(CS(=O)(=O)N1CCC(CCc2ccc(F)cc2C(F)(F)F)CC1)N(O)C=O)c1ncc(F)cn1 | 9700 nM | 16000 nM | 3600 nM | 1900 nM | 19 nM | 0.52 nM | 
Cc1cc(F)ccc1CCC1CCN(S(=O)(=O)C[C@](C)(C[C@H](C)c2ncc(F)cn2)N(O)C=O)CC1 | > 8100 nM | 530 nM | 160 nM | 120 nM | 21 nM | 0.18 nM | 
Cc1cc(C(F)(F)F)ccc1CCC1CCN(S(=O)(=O)C[C@](C)(C[C@H](C)c2ncc(F)cn2)N(O)C=O)CC1 | > 10000 nM | 2300 nM | 4600 nM | 350 nM | 420 nM | 0.49 nM | 
C[C@@H](C[C@@](C)(CS(=O)(=O)N1CCC(CCc2ccc(C(F)(F)F)cc2C2CC2)CC1)N(O)C=O)c1ncc(F)cn1 | > 10000 nM | 17000 nM | 18000 nM | > 9100 nM | 3200 nM | 0.94 nM | 
Cc1ccc(C)c(CCC2CCN(S(=O)(=O)C[C@](C)(C[C@H](C)c3ncc(F)cn3)N(O)C=O)CC2)c1 | > 10000 nM | 23000 nM | 4200 nM | 4200 nM | 22 nM | 0.48 nM | 
Cc1cc(CCC2CCN(S(=O)(=O)C[C@](C)(C[C@H](C)c3ncc(F)cn3)N(O)C=O)CC2)c(C)cn1 | > 100000 nM | 14000 nM | 17000 nM | 12000 nM | 230 nM | 0.43 nM | 
Cc1cnc(C)c(CCC2CCN(S(=O)(=O)C[C@](C)(C[C@H](C)c3ncc(F)cn3)N(O)C=O)CC2)c1 | 55000 nM | 27000 nM | > 8000 nM | 35000 nM | 1400 nM | 1.9 nM | 
Cc1nsc(C)c1CCC1CCN(S(=O)(=O)C[C@](C)(C[C@H](C)c2ncc(F)cn2)N(O)C=O)CC1 |  | 4600 nM | 2600 nM | 2400 nM |  | 0.26 nM | 
Cc1cc(C)c(CCC2CCN(S(=O)(=O)C[C@](C)(C[C@H](C)c3ncc(F)cn3)N(O)C=O)CC2)cn1 | > 100000 nM | > 4500 nM | > 3700 nM | 2200 nM | 3000 nM | 0.68 nM | 
C[C@@H](C[C@@](C)(CS(=O)(=O)N1CCC(CCc2ncc(C(F)(F)F)cc2Cl)CC1)N(O)C=O)c1ncc(F)cn1 | > 70000 nM | > 16000 nM | > 18000 nM | 2800 nM | 27000 nM | 4.2 nM | 
Cc1cc(C(F)(F)F)cnc1CCC1CCN(S(=O)(=O)C[C@](C)(C[C@H](C)c2ncc(F)cn2)N(O)C=O)CC1 | > 79000 nM | 6100 nM | 40000 nM | 2500 nM | 24000 nM | 2.1 nM | 
C[C@@H](C[C@@](C)(CS(=O)(=O)N1CCC(CCc2ccc(S(C)(=O)=O)cc2Cl)CC1)N(O)C=O)c1ncc(F)cn1 | > 70000 nM | 350 nM | > 3600 nM | 180 nM | 5500 nM | 0.57 nM | 
Cc1cc(CCC2CCN(S(=O)(=O)C[C@](C)(C[C@H](C)c3ncc(F)cn3)N(O)C=O)CC2)n(C)n1 | > 10000 nM | 6700 nM | 29000 nM | 26000 nM | 2800 nM | 5.4 nM | 
